Marks after values point to notes of the source that are not given here. In the oligonucleotide strings, read from the 5' end, every base follows the letter of its sugar. An asterisk marks phosphorothioate; unmarked linkages are phosphodiester. Other units and linkages are bracketed, terminal groups are in braces. A string of capitals states the bases alone. l = locked nucleic acid (LNA); [5mC] = 5-methylcytosine; d = 2'-deoxy (DNA)
Experiments:
[1] = tested on: Mouse HER3 mRNA; test: HER3 mRNA knockdown in liver of nude mice bearing 15PC3 xenografts, qd x 5 (qRT-PCR); assay type: in vivo; details: i.v.
Description: (§1) To evaluate the knockdown efficacy of the HER3 oligomeric compounds in vivo, the female nude mice bearing 15PC3 xenografts developed by subcutaneous injection of 5×10^6 cells/mouse into the right axillary flank, were injected intravenously with the oligomers at various doses and injection schedules (i.e. single dose, qd, q3d, q4d). Scrambled oligomer SEQ ID NO: 236 served as a negative control. 24 hours after the last injection, the mice were euthanized and liver and tumor tissues were collected in RNAlater solution (Ambion). Total RNA was purified from the tissues and the levels of HER3 mRNA were determined by quantitative reverse transcription-real time PCR (qRT-PCR) using the QuantiTect Probe RT-PCR kit (Cat#: 204443; Qiagen). GAPDH mRNA served as an internal control.
(§2) 200 ng of total RNA was used in the PCR reaction. The data analyses were performed by using the ABI-7500 PCR Fast System included software.
(§3) Data in Table 5 are presented as % HER3 mRNA levels relative to saline treated controls in liver and tumor samples after i.v. dosing of animals on 5 consecutive days with oligonucleotides in the doses indicated.

[2] = tested on: human HER3 mRNA; test: HER3 mRNA knockdown in 15PC3 xenograft tumor in nude mice, qd x 5 (qRT-PCR); assay type: in vivo; details: i.v., relative to saline controls
Description: as §1, §2, §3

[3] = tested on: HER3 mRNA; test: HER3 mRNA knockdown in 15PC3 xenograft tumor, different dosing cycle; assay type: in vivo, human; details: every third day
Description: as §1
(§4) The knockdown efficacy of oligomers was evaluated in vivo in nude mice bearing xenograft tumors derived from 15PC3 cells or A549 cells (NSCLC) or N87 cells (gastric carcinoma) using a similar protocol to the one described above in Example 11. Oligomers were administered by injection every third day in 2-4 doses. Tissues were harvested 3 or 4 days after the last injection.
(§5) Data in Tables 6 and 7 are presented as % HER3 mRNA or HIF-1 alpha mRNA relative to saline treated controls in liver and tumor samples after i.v. dosing of animals with the indicated oligomers.

[4] = tested on: HIF-1 alpha mRNA; test: HIF-1 alpha mRNA in 15PC3 xenograft tumor, different dosing cycle; assay type: in vivo, human; details: every third day
Description: as §1, §4, §5

[5] = tested on: HER3 mRNA; test: HER3 mRNA knockdown in liver of xenograft-bearing nude mice, different dosing cycle; assay type: in vivo, mouse; details: for Liver HER3 mRNA relative to saline treated controls: 15PC3 xenograft mice, every third day
Description: as §1
as §4, with “Oligomers were administered by injection every third day in 2-4 doses.” left out
as §5

[6] = tested on: HER3 mRNA; test: HER3 mRNA knockdown in A549 (NSCLC) xenograft tumor; assay type: in vivo, human; details: 35 mg/kg, q4d x 3, i.v.
Description: as §1, §4, §5

[7] = tested on: human HER3 mRNA; test: Down-regulation of HER3 mRNA in transfected HUH-7 cells, real-time PCR; assay type: cell-based; details: 25 nM, HUH-7 cells (indicated by *)
Description: HUH7: The human hepatocarcinoma cell line was cultured in DMEM (Sigma)+10% fetal bovine serum (FBS)+2 mM Glutamax I+gentamicin (25 μg/ml)+1× Non Essential Amino Acids.
The cells were treated with oligonucleotides using the cationic liposome formulation LipofectAMINE 2000 (Gibco) as transfection vehicle. Cells were seeded in 6-well cell culture plates (NUNC) and treated when 80-90% confluent. Oligomer concentrations ranged from 1 nM to 25 nM final concentration. Formulation of oligomer-lipid complexes was carried out essentially as described by the manufacturer using serum-free OptiMEM (Gibco) and a final lipid concentration of 5 μg/mL LipofectAMINE 2000. […]
(§6) The sample content of human HER3, EGFR and HER2 mRNA was quantified using the human HER3, EGFR and HER2 ABI Prism Pre-Developed TaqMan Assay Reagents (Applied Biosystems cat. no. Hs00951444_ml (HER3), Hs00193306_ml (EGFR) and Hs00170433_ml (HER2) according to the manufacturer's instructions.
Glyceraldehyde-3-phosphate dehydrogenase (GAPDH) mRNA quantity was used as an endogenous control for normalizing any variance in sample preparation. The sample content of human GAPDH mRNA was quantified using the human GAPDH ABI Prism Pre-Developed TaqMan Assay Reagent (Applied Biosystems cat. no. 4310884E) according to the manufacturer's instructions. […]

[8] = tested on: human EGFR mRNA; test: Down-regulation of EGFR mRNA in transfected 15PC3 cells, real-time PCR; assay type: cell-based; details: 25 nM
Description: (§7) 15PC3: The human prostate cancer cell line 15PC3 was cultured in DMEM (Sigma)+10% fetal bovine serum (FBS)+2 mM Glutamax I+gentamicin (25 μg/ml).
(§8) The cells were treated with oligonucleotides using the cationic liposome formulation LipofectAMINE 2000 (Gibco) as transfection vehicle. Cells were seeded in 6-well cell culture plates (NUNC) and treated when 80-90% confluent. Oligomer concentrations ranged from 1 nM to 25 nM final concentration. Formulation of oligomer-lipid complexes was carried out essentially as described by the manufacturer using serum-free OptiMEM (Gibco) and a final lipid concentration of 5 μg/mL LipofectAMINE 2000. Cells were incubated at 37° C. for 4 hours and treatment was stopped by removal of oligomer-containing culture medium. Cells were washed and serum-containing medium was added. After oligomer treatment, cells were allowed to recover for 20 hours before they were harvested for RNA analysis.
(§9) Total RNA was extracted from cells transfected as described above and using the Qiagen RNeasy kit (Qiagen cat. no. 74104) according to the manufacturer's instructions. First strand synthesis was performed using Reverse Transcriptase reagents from Ambion according to the manufacturer's instructions.
(§10) For each sample 0.5 μg total RNA was adjusted to (10.8 μl) with RNase free H2O and mixed with 2 μl random decamers (50 μM) and 4 μl dNTP mix (2.5 mM each dNTP) and heated to 70° C. for 3 min after which the samples were rapidly cooled on ice. After cooling the samples on ice, 2 μl 10× Buffer RT, 1 μl MMLV Reverse Transcriptase (100 U/μl) and 0.25 μl RNase inhibitor (10 U/μl) was added to each sample, followed by incubation at 42° C. for 60 min, heat inactivation of the enzyme at 95° C. for 10 min, and then cooling the sample to 4° C.
as §6
(§11) Glyceraldehyde-3-phosphate dehydrogenase (GAPDH) mRNA quantity was used as an endogenous control for normalizing any variance in sample preparation. The sample content of human GAPDH mRNA was quantified using the human GAPDH ABI Prism Pre-Developed TaqMan Assay Reagent (Applied Biosystems cat. no. 4310884E) according to the manufacturer's instructions.
(§12) The cDNA from the first strand synthesis performed as described in Example 5 was diluted 2-20 times, and analyzed by real time quantitative PCR using Taqman 7500 FAST or 7900 FAST from Applied Biosystems. The primers and probe were mixed with 2× Taqman Fast Universal PCR master mix (2×) (Applied Biosystems Cat. #4364103) and added to 4 μl cDNA to a final volume of 10 μl. Each sample was analysed in duplicate. Assaying 2-fold dilutions of a cDNA that had been prepared on material purified from a cell line expressing the RNA of interest generated standard curves for the assays. Sterile H2O was used instead of cDNA for the no-template control. PCR program: 95° C. for 30 seconds, followed by 40 cycles of 95° C., 3 seconds, 60° C., 20-30 seconds. Relative quantities of target mRNA sequence were determined from the calculated Threshold cycle using the Applied Biosystems Fast System SDS Software Version 1.3.1.21. or SDS Software Version 2.3.
(§13) Oligonucleotides presented in Table 4 were evaluated for their potential to down-regulate HER3, EGFR and HER2 mRNA at concentrations of 1, 5 and 25 nM in 15PC3 cells (or HUH-7 as indicated by *) (see FIGS. 2, 3, 4 and 5). SEQ ID NOs: 235 and 236 were used as scrambled controls.
(§14) The data in Table 4 are presented as percentage down-regulation of mRNA relative to mock transfected cells at 25 nM. Lower-case letters represent DNA monomers, bold, upper-case letters represent β-D-oxy-LNA monomers. All cytosines in LNA monomers are 5-methylcytosines. Subscript “s” represents a phosphorothioate linkage.

[9] = tested on: human HER2 mRNA; test: Down-regulation of HER2 mRNA in transfected 15PC3 cells, real-time PCR; assay type: cell-based; details: 25 nM
Description: as §7, §8, §9, §10, §6, §11, §12, §13, §14

[10] = tested on: HER3 mRNA; test: HER3 mRNA knockdown in N87 (gastric carcinoma) xenograft tumor; assay type: in vivo, human; details: 25 mg/kg, q3d x 5, i.v.
Description: as §1
as §4, with “Oligomers were administered by injection every third day in 2-4 doses.” left out
as §5

CSGSCSASgSaStStSaSgSaSaSASCSCSt (l[5mC]*lG*l[5mC]*lA*dG*dA*dT*dT*dA*dG*dA*dA*lA*l[5mC]*l[5mC]*dT) [SEQ ID NO: 236, scrambled oligomer, negative control, reference compound]
HER3 mRNA Liver ([1]; 22.9 mg/kg): 81.4 ± 6.5 % of Sal ctrl | HER3 mRNA Liver ([1]; 30 mg/kg): 87.6 ± 19 % of Sal ctrl | HER3 mRNA Liver ([1]; 60 mg/kg): 86.5 ± 9.9 % of Sal ctrl | HER3 mRNA Liver ([1]; 76.3 mg/kg): 78 ± 17 % of Sal ctrl | HER3 mRNA Tumor ([2]; 22.9 mg/kg): 119.3 ± 24.9% | HER3 mRNA Tumor ([2]; 30 mg/kg): 101.2 ± 21.1% | HER3 mRNA Tumor ([2]; 60 mg/kg): 95.5 ± 12.7% | HER3 mRNA Tumor ([2]; 76.3 mg/kg): 100 ± 10.5% | Tumor HER3 mRNA relative to saline treated controls ([3]; 76.3 x 4 mg/kg i.v.): 106 ± 6.6% | Tumor Hif1A mRNA relative to saline treated controls ([4]; 76.3 x 4 mg/kg i.v.): 101 ± 13.8% | Liver HER3 mRNA relative to saline treated controls ([5]; 76.3 x 4 mg/kg i.v.): 115.9 ± 26.3% | HER3 Liver ([5]; A549 xenograft mice, 35 mg/kg, q4d x 3, i.v.): 97.5 ± 21.2 % saline control | HER3 Tumor [6]: 87.6 ± 11.9 % saline control

GSASCSaStScSaScStScStSgSgSTSGST (lG*lA*l[5mC]*dA*dT*dC*dA*dC*dT*dC*dT*dG*dG*lT*lG*lT; antisense) [SEQ ID NO: 196]
HER3: percentage down-regulation of mRNA relative to mock transfected cells [7]: 77.0%*

GSCSTScScSaSgSaScSaStScSaSCSTSC (antisense lG*l[5mC]*lT*dC*dC*dA*dG*dA*dC*dA*dT*dC*dA*l[5mC]*lT*l[5mC]) [SEQ ID NO: 169, β-D-oxy-LNA/DNA phosphorothioate gapmer antisense oligonucleotide targeting HER3]
EGFR: percentage down-regulation of mRNA relative to mock transfected cells [8]: 95.2% | HER2: percentage down-regulation of mRNA relative to mock transfected cells [9]: 75.8% | HER3 mRNA Liver ([1]; 11.3 mg/kg): 10.2 ± 5.5 % of Sal ctrl | HER3 mRNA Liver ([1]; 37.7 mg/kg): 20.7 ± 9.8 % of Sal ctrl | HER3 mRNA Tumor ([2]; 37.7 mg/kg): 77 ± 10% | Tumor HER3 mRNA relative to saline treated controls ([3]; 37.7 x 4 mg/kg i.v.): 81.6 ± 12.7% | Tumor Hif1A mRNA relative to saline treated controls ([4]; 37.7 x 4 mg/kg i.v.): 94.6 ± 19.6% | Liver HER3 mRNA relative to saline treated controls ([5]; 37.7 x 4 mg/kg i.v.): 39 ± 4.6%

TSASGScScStStStSgSaScScStSCSTSC (antisense lT*lA*lG*dC*dC*dT*dT*dT*dG*dA*dC*dC*dT*l[5mC]*lT*l[5mC]) [SEQ ID NO: 249, reference compound]
HER3 Liver ([5]; N87 xenograft mice, 25 mg/kg, q3d x 5, i.v.): 123 ± 4.5 % saline control | HER3 Tumor [10]: 99.0 ± 8.9 % saline control
